Reference: the supplement of paper PMC11061612

Legend:
Test in all cases: combination Emax (second highest fraction inhibited in the dose matrix, 72 h); higher = more inhibition; extreme values may be limits of the assay
[1] = tested on: KARPAS-45 (T-Lymphoblastic Leukemia)
Summary of the method: (§1)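 Cell lines in DMEM/F12 or RPMI with 10% FBS were plated in 1536-well plates, held 24 hours at 37°C, 5% CO2, then given two-drug dose matrices for 72 hours (DMSO typically 0.2%). Viability was read by CellTiter-Glo 2.0 luminescence and scaled as inhibition from 0 (vehicle wells) to 1 (blank wells). Combination Emax is the second-highest inhibition in the matrix; Bliss excess is observed combination effect minus expected EA + EB − EA·EB, EA and EB being single-agent effects.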

[2] = tested on: ES1 (Ewing's Sarcoma)
Summary of the method: as §1

[3] = tested on: TC-71 (Ewing's Sarcoma)
Summary of the method: as §1

[4] = tested on: MS751 (Cervical Carcinoma)
Summary of the method: as §1

[5] = tested on: ES8 (Ewing's Sarcoma)
Summary of the method: as §1

[6] = tested on: LN-18 (Glioblastoma)
Summary of the method: as §1

[7] = tested on: SW837 (Colorectal Carcinoma)
Summary of the method: as §1

[8] = tested on: GR-ST (B-Lymphoblastic Leukemia)
Summary of the method: as §1

[9] = tested on: SR (Other Blood Carcinomas)
Summary of the method: as §1

[10] = tested on: NCI-H847 (Small Cell Lung Carcinoma)
Summary of the method: as §1

[11] = tested on: SU-DHL-8 (B-Cell Non-Hodgkin's Lymphoma)
Summary of the method: as §1

[12] = tested on: MEL-JUSO (Melanoma)
Summary of the method: as §1

[13] = tested on: HL-60 (Acute Myeloid Leukemia)
Summary of the method: as §1

[14] = tested on: L-540 (Hodgkin's Lymphoma)
Summary of the method: as §1

[15] = tested on: MFM-223 (Breast Carcinoma)
Summary of the method: as §1

[16] = tested on: MOLT-16 (T-Lymphoblastic Leukemia)
Summary of the method: as §1

[17] = tested on: DiFi (Colorectal Carcinoma)
Summary of the method: as §1

[18] = tested on: TE-6 (Esophageal Squamous Cell Carcinoma)
Summary of the method: as §1

[19] = tested on: TOV-112D (Ovarian Carcinoma)
Summary of the method: as §1

[20] = tested on: SW1417 (Colorectal Carcinoma)
Summary of the method: as §1

Compound | combination Emax [1] | combination Emax [2] | combination Emax [3] | combination Emax [4] | combination Emax [5] | combination Emax [6] | combination Emax [7] | combination Emax [8] | combination Emax [9] | combination Emax [10] | combination Emax [11] | combination Emax [12] | combination Emax [13] | combination Emax [14] | combination Emax [15] | combination Emax [16] | combination Emax [17] | combination Emax [18] | combination Emax [19] | combination Emax [20]
Cc1cc2ncnn2cc1Nc1ncc2c(n1)n(C1CCOCC1)c(=O)n2C [AZD7648] + O=C(c1cc(Cc2n[nH]c(=O)c3ccccc23)ccc1F)N1CCN(C(=O)C2CC2)CC1 [Olaparib] (first compound max 10 µM, 7x7, partner max 10 µM) | 0.177 | 0.686 | 0.6 | 0.197 | 0.814 | 0.132 | 0.0487 | 0.472 | 0.514 | 0.853 | 0.448 | 0.104 | 0.228 | 0.396 | 0.172 | 0.633 | 0.258 | 0.328 | 0.353 | 0.165
CCN(CCO)CCCOc1ccc2c(Nc3cc(CC(=O)Nc4cccc(F)c4)[nH]n3)ncnc2c1 [AZD2811] + C[C@@H]1COCCN1C2=NC(=NC(=C2)C3(CC3)[S@](=N)(=O)C)C4=C5C=CNC5=NC=C4 [AZD6738] (first compound max 1 µM, 7x7, partner max 10 µM) | 0.948 | 0.948 | 0.94 | 0.492 | 1 | 0.585 | 0.361 | 0.732 | 0.968 | 1 | 0.918 | 0.357 | 0.899 | 0.921 | 0.8 | 1 | 0.819 | 0.543 | 0.707 | 0.341
Cc1cc2ncnn2cc1Nc1ncc2c(n1)n(C1CCOCC1)c(=O)n2C [AZD7648] + CN(C)CCCOc1ccc(-c2ccc3ncc4c(c3c2)n(C2CCOCC2)c(=O)n4C)cn1 [AZD0156] (first compound max 10 µM, 7x7, partner max 1 µM) | 0.234 | 0.478 | 0.246 | 0.275 | 0.408 | 0.17 | 0.154 | 0.489 | 0.377 | 0.663 | 0.125 | 0.169 | 0.416 | 0.366 | 0.238 | 0.511 | 0.273 | 0.363 | 0.38 | 0.326
CN(CCO)CC[C@H](CSc1ccccc1)Nc1ccc(S(=O)(=O)NC(=O)c2ccc(N3CCC([C@@H](O)c4ccccc4-c4ccc(Cl)cc4)CC3)cc2)cc1S(=O)(=O)C(F)(F)F [AZD4320] + Cc1cc2ncnn2cc1Nc1ncc2c(n1)n(C1CCOCC1)c(=O)n2C [AZD7648] (first compound max 1 µM, 7x7, partner max 10 µM) | 0.991 | 0.355 | 0.593 | 0.146 | 0.57 | 0.204 | 0.201 | 0.371 | 0.393 | 1 | 0.942 | 0.181 | 0.923 | 0.502 | 0.223 | 1 | 0.784 | 0.524 | 0.318 | 0.798
CN(C)CCCOc1ccc(-c2ccc3ncc4c(c3c2)n(C2CCOCC2)c(=O)n4C)cn1 [AZD0156] + C[C@@H]1COCCN1C2=NC(=NC(=C2)C3(CC3)[S@](=N)(=O)C)C4=C5C=CNC5=NC=C4 [AZD6738] (first compound max 1 µM, 7x7, partner max 10 µM) | 0.857 | 0.956 | 0.952 | 0.271 | 0.799 | 0.725 | 0.466 | 0.715 | 0.946 | 0.956 | 0.892 | 0.525 | 0.751 | 0.93 | 0.828 | 1 | 0.829 | 0.636 | 0.717 | 0.33
Cc1c2c(nn1C)CSCc1cc(n(C)n1)CSc1cc(c3ccccc3c1)OCCCc1c(C(=O)O)n(C)c3c-2c(Cl)ccc13 [AZD5991] + C[C@@H]1COCCN1C2=NC(=NC(=C2)C3(CC3)[S@](=N)(=O)C)C4=C5C=CNC5=NC=C4 [AZD6738] (first compound max 1 µM, 7x7, partner max 10 µM) | 1 | 1 | 0.987 | 0.901 | 0.891 | 0.842 | 0.354 | 0.716 | 1 | 0.994 | 1 | 0.684 | 1 | 1 | 0.824 | 1 | 0.923 | 0.817 | 0.963 | 0.453
Cc1c2c(nn1C)CSCc1cc(n(C)n1)CSc1cc(c3ccccc3c1)OCCCc1c(C(=O)O)n(C)c3c-2c(Cl)ccc13 [AZD5991] + CN(C)CCCOc1ccc(-c2ccc3ncc4c(c3c2)n(C2CCOCC2)c(=O)n4C)cn1 [AZD0156] (first compound max 1 µM, 7x7, partner max 1 µM) | 0.913 | 0.753 | 0.463 | 0.859 | 0.385 | 0.514 | 0.208 | 0.502 | 0.96 | 0.57 | 0.692 | 0.439 | 1 | 1 | 0.238 | 1 | 0.252 | 0.792 | 0.551 | 0.263
Cc1cc2ncnn2cc1Nc1ncc2c(n1)n(C1CCOCC1)c(=O)n2C [AZD7648] + CCN(CCO)CCCOc1ccc2c(Nc3cc(CC(=O)Nc4cccc(F)c4)[nH]n3)ncnc2c1 [AZD2811] (first compound max 10 µM, 7x7, partner max 1 µM) | 0.931 | 0.724 | 0.793 | 0.453 | 1 | 0.393 | 0.192 | 0.466 | 0.86 | 0.971 | 0.245 | 0.258 | 0.865 | 0.504 | 0.298 | 1 | 0.584 | 0.313 | 0.458 | 0.313
CC1(C)CCC(CN2CCN(c3ccc(C(=O)NS(=O)(=O)c4ccc(NCC5CCOCC5)c([N+](=O)[O-])c4)c(Oc4cnc5[nH]ccc5c4)c3)CC2)=C(c2ccc(Cl)cc2)C1 [Venetoclax] + COc1cc(Nc2ncc3c(n2)-c2ccc(Cl)cc2C(c2c(F)cccc2OC)=NC3)ccc1C(=O)O [Alisertib] (first compound max 1 µM, 7x7, partner max 10 µM) | 0.982 | 0.842 | 0.855 | 0.724 | 0.962 | 0.787 | 0.308 | 0.631 | 0.966 | 1 | 0.83 | 0.301 | 0.923 | 0.89 | 0.849 | 1 | 0.559 | 0.527 | 0.684 | 0.235
CC1(C)CCC(CN2CCN(c3ccc(C(=O)NS(=O)(=O)c4ccc(NCC5CCOCC5)c([N+](=O)[O-])c4)c(Oc4cnc5[nH]ccc5c4)c3)CC2)=C(c2ccc(Cl)cc2)C1 [Venetoclax] + Cn1cnc2c(F)c(Nc3ccc(Br)cc3Cl)c(C(=O)NOCCO)cc21 [Selumetinib] (first compound max 1 µM, 7x7, partner max 3 µM) | 0.317 | 0.338 | 0.291 | 0.191 | 0.195 | 0.17 | 0.297 | 0.481 | 0.791 | 0.168 | 0.31 | 0.305 | 0.937 | 0.493 | 0.24 | 0.691 | 0.351 | 0.319 | 0.156 | 0.489
C=CCn1c(=O)c2cnc(Nc3ccc(N4CCN(C)CC4)cc3)nc2n1-c1cccc(C(C)(C)O)n1 [AZD1775] + C[C@@H]1COCCN1C2=NC(=NC(=C2)C3(CC3)[S@](=N)(=O)C)C4=C5C=CNC5=NC=C4 [AZD6738] (first compound max 1 µM, partner max 10 µM) | 1 | 0.948 | 0.941 | 0.428 | 0.905 | 0.736 | 0.636 | 0.78 | 1 | 1 | 0.903 | 0.496 | 0.893 | 0.941 | 0.897 | 1 | 0.895 | 0.669 | 0.764 | 0.655
C=CCn1c(=O)c2cnc(Nc3ccc(N4CCN(C)CC4)cc3)nc2n1-c1cccc(C(C)(C)O)n1 [AZD1775] + C1CN(CCC1(C(=O)N[C@@H](CCO)C2=CC=C(C=C2)Cl)N)C3=NC=NC4=C3C=CN4 [Capivasertib] (first compound max 3 µM, partner max 3 µM) | 0.962 | 0.797 | 0.92 | 0.899 | 0.943 | 0.581 | 0.692 | 0.818 | 0.999 | 1 | 0.953 | 0.442 | 0.849 | 0.862 | 0.711 | 1 | 0.643 | 0.736 | 0.889 | 0.544
